The target of experiment [1] is T1, Plasmodium falciparum hexose transporter (PfHT) (Plasmodium falciparum, UniProt O97467).
T1 construct: expressed in transfected cells; host or cells: Xenopus laevis oocytes
T1 sequence (O97467 1-504): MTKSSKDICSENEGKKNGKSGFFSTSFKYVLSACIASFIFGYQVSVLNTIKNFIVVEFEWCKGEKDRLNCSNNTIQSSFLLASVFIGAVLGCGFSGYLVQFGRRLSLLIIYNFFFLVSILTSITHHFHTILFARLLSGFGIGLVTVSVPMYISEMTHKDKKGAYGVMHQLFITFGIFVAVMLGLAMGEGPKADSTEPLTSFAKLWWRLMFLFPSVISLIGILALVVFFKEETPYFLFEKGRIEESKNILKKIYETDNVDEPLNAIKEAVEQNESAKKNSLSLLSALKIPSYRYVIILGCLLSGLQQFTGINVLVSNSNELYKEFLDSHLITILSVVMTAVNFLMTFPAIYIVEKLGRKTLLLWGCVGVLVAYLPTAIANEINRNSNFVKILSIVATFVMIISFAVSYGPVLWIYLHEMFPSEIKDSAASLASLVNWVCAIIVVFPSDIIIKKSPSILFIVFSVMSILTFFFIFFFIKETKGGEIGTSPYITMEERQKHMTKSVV
Conditions: cited from earlier work; for Km: substrate Km, read-out: Km for transport via PfHT.

Experiment [2] addresses T1, Plasmodium falciparum hexose transporter (PfHT). The experiment in a line: cell-based. To be noted: D-glucose (38 μM) transport, X. laevis oocytes, room temperature; mean ± SEM (n ≥ 3). How it is done:
(§1) The effect of the green tea catechins, EC, ECG, EGC and EGCG, on D-glucose transport via PfHT, GLUT1 and the Babesia bovis hexose transporter 1 (BboHT1; [12]) and D-fructose transport via GLUT5 was assayed in Xenopus laevis oocytes expressing each of the hexose transporters, using methods described previously.

The target in experiment [3] is T2, mammalian facilitative glucose transporter 1 (GLUT1) (Homo sapiens, UniProt P11166).
T2 construct: expressed in transfected cells; host or cells: Xenopus laevis oocytes
T2 sequence (P11166 1-492): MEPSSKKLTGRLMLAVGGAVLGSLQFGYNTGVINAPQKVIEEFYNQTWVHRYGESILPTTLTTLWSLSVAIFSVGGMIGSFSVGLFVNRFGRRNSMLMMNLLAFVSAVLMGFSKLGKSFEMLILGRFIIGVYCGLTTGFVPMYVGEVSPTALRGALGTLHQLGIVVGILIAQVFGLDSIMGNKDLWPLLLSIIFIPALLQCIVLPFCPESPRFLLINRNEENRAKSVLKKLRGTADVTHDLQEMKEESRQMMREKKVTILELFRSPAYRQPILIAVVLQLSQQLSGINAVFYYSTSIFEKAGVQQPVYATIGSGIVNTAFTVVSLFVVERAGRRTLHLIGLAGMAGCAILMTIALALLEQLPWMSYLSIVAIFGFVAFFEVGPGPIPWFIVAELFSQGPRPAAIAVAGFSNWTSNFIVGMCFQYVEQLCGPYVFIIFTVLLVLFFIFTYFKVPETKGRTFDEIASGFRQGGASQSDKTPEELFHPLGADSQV
The experiment in a line: D-glucose transport via GLUT1 expressed in Xenopus laevis oocytes. The format is cell-based. Conditions: D-glucose (38 μM) transport, X. laevis oocytes, room temperature; mean ± SEM (n ≥ 3). Here is the method: as §1

A further experiment deals with T3, GLUT5 (Homo sapiens, UniProt P22732).
T3 construct: expressed in transfected cells; host or cells: Xenopus laevis oocytes
T3 sequence (P22732 1-501): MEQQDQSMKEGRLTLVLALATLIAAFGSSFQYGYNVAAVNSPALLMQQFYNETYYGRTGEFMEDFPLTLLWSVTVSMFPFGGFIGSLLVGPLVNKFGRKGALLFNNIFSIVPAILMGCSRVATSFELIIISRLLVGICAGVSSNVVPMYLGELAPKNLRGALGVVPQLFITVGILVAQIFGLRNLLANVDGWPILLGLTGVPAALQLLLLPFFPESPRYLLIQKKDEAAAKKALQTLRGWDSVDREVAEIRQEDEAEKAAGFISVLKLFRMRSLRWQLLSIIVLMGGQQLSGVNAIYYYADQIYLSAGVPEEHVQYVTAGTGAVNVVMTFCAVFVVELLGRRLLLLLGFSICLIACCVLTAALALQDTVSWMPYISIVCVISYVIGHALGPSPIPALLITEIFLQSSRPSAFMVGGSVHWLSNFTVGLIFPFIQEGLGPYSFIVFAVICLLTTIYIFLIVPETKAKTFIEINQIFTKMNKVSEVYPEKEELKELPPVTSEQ
Kind of experiment: D-fructose transport via GLUT5 expressed in Xenopus laevis oocytes. The format is cell-based, mammalian. To be noted: D-fructose (100 μM) transport, X. laevis oocytes, room temperature; mean ± SEM (n ≥ 3). How it is done: as §1

Experiment [4] has as its target T4, Babesia bovis hexose transporter 1 (BboHT1) (Babesia bovis, UniProt B0LKY8). The experiment in a line: D-glucose transport via BboHT1 expressed in Xenopus laevis oocytes. The format is cell-based. Conditions: X. laevis oocytes, room temperature, mean ± SEM (n ≥ 3). How it is done:
The effect of the green tea catechins, EC, ECG, EGC and EGCG, on D-glucose transport via PfHT, GLUT1 and the Babesia bovis hexose transporter 1 (BboHT1; [12]) and D-fructose transport via GLUT5 was assayed in Xenopus laevis oocytes expressing each of the hexose transporters, using methods described previously. The compounds were tested initially at a concentration of 0.5 mM (data not shown).

Experiment [5] deals with Babesia divergens (strain Rouen 1987). The experiment in a line: Babesia divergens growth inhibition. The format is cell-based. Conditions: B. divergens, mean ± SEM; for inhibition of parasite growth: 200 μM, n = 3. How it is done: (§2) Furthermore, given that catechins are competitive inhibitors of D-glucose transport mediated by GLUT1 [8], the relationship between external D-glucose concentration and IC50 values was examined. […] The effect of catechins was also tested on Babesia divergens (strain Rouen 1987) growth as described.

The next experiment concerns L323N BboHT1. Kind of experiment: D-glucose uptake by mutant L323N BboHT1 in X. laevis oocytes. The format is cell-based, Babesia bovis. Conditions: 0.5 mM catechin; L323N vs wild-type; P < 0.001.
A further experiment deals with P. falciparum (3D7). Kind of experiment: P. falciparum growth in vitro. The format is cell-based, Plasmodium falciparum. To be noted: P. falciparum 3D7, 12 mM D-glucose, 48 h; mean ± SEM (n ≥ 3); read-out: IC50 parasite growth. Here is the method:
as §2

The next experiment concerns the target T5, PfHT (Plasmodium falciparum, UniProt O97467).
T5 construct: expressed in transfected cells; host or cells: Xenopus laevis oocytes
The experiment in a line: 3-O-methyl-D-glucose (3OMG) transport via PfHT in X. laevis oocytes. The format is cell-based. To be noted: 3OMG (17 μM), mean ± SEM, n = 3.

The target in the next experiment is GLUT1. Also on record: method as in PMID 12970085. To be noted: human erythrocytes, zero-trans D-glucose efflux; read-out: Ki for D-glucose transport via GLUT1, published previously; cited from earlier work.
The target of experiment [6] is T4, Babesia bovis hexose transporter 1 (BboHT1). Details: method as in PMID 18638508. To be noted: cited from earlier work.
Another experiment has as its system B. bovis parasites. Details: method as in PMID 18638508. Conditions: cited from earlier work.

Where only a bound is given, the exact number is not on record here.

T4 sequence (B0LKY8 entry or part of it): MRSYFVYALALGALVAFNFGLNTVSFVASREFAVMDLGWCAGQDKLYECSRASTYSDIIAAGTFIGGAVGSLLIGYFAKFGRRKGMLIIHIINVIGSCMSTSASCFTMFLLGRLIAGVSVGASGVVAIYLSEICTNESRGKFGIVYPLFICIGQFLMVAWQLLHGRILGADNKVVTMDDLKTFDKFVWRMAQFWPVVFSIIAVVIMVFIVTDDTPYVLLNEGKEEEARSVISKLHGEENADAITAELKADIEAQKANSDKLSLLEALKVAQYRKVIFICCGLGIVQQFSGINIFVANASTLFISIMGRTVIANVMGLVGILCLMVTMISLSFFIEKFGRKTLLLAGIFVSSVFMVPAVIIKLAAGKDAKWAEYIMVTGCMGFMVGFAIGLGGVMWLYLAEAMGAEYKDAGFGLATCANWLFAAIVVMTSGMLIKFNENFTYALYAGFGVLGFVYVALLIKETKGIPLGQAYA

The term Km denotes the concentration of substrate that gives half-maximal velocity. `CO[C@@H]([C@H](O)[C@H](O)CO)[C@@H](O)C=O` [3OMG, 3-O-methyl-D-glucose]: the Km in experiment [1] is 1300 µM.

`OC[C@H]1OC(O)[C@H](O)[C@@H](O)[C@@H]1O` (stereo partly drawn) [D-glucose]: in [1], the Km is 1000 µM.

The Ki is the dissociation constant of the complex between target and ligand, obtained from inhibition or displacement. In general, inhibition refers to how much of the control response was suppressed. `Oc1cc(O)c2c(c1)O[C@H](c1ccc(O)c(O)c1)[C@H](O)C2` [EC, (−)-epicatechin]: the Ki is > 500 µM in experiment [2], ~500 µM in [3], > 500 µM on GLUT5 and 108 ± 52 µM in [4]. The inhibition at 200 µM in experiment [5] (Babesia divergens, n = 3, read-out: inhibition of parasite growth) was found to be 66 ± 14%. Also, the “effect on D-glucose uptake by mutant versus wild-type BboHT1” value in the experiment on L323N BboHT1 was “affected significantly less”.

A word on the IC50: it is the concentration needed to halve the response being measured. Regarding `O=C(O[C@@H]1Cc2c(O)cc(O)cc2O[C@@H]1c1ccc(O)c(O)c1)c1cc(O)c(O)c(O)c1` [ECG, (−)-epicatechin-gallate], the Ki was 45 ± 10 µM in [2]; 68 ± 18 µM in [3]; 117 ± 54 µM on GLUT5; > 500 µM in [4]; 18 ± 3 µM at PfHT; 0.14 µM on GLUT1. In addition, the half-inhibitory concentration (IC50) in the experiment with P. falciparum (3D7) is 32 ± 1 µM.

For `Oc1cc(O)c2c(c1)O[C@H](c1cc(O)c(O)c(O)c1)[C@H](O)C2` [EGC, (−)-epigallocatechin], the Ki is > 500 µM in [2], > 500 µM in [3], > 500 µM at GLUT5 and 168 ± 83 µM in experiment [4]. For the same molecule, in [5], the “inhibition of parasite growth” value was determined as 30 ± 10%.

As for `C=CCCCCCCCCCO[C@H]1[C@H](O)[C@@H](CO)OC(O)[C@@H]1O` (stereo partly drawn) [compound 3361], the “inhibition of D-glucose transport via PfHT (mode)” value in experiment [1] was “specific and competitive inhibitor”. The “inhibition of BboHT1” value in experiment [6] is listed as “good inhibitor”. In addition, the “killing of B. bovis parasites in culture” value in the experiment on B. bovis parasites is listed as “did not kill”.

For the molecule (−)-epigallocatechin-gallate [EGCG], the Ki is 90 ± 24 µM in [2]; 105 ± 18 µM in experiment [3]; 113 ± 48 µM at GLUT5; > 500 µM in [4]; 0.97 µM on GLUT1. Further, the IC50 with P. falciparum (3D7) was found to be 17 ± 3 µM. Also, the “inhibition of parasite growth” value in experiment [5] amounted to 71 ± 2%.

The values are drawn from PMC2791876, “Comparison of effects of green tea catechins on apicomplexan hexose transporters and mammalian orthologues” (Molecular and Biochemical Parasitology, 2009).
